Results: patent US6123959A, “Aqueous composition comprising active ingredients for the de-pigmentation of the skin” (Univera Pharmaceuticals, Inc., priority 1998, dated 2000)
Like-named read-outs stand apart in the source and are kept apart here.

Assays:
synthesis of melanin = details: cited from earlier work
tyrosinase [1] = details: cited from earlier work
skin = details: cited from earlier work; for quantity required to achieve a similar effect, compared to hydroquinone: relative to quantity of hydroquinone used
tyrosinase [2] = assay: inhibitory effect on tyrosinase of octylaloesin compared to aloesin; assay type: biochemical
tyrosinase [3] = details: cited from earlier work; for mode of tyrosinase inhibition: Lineweaver Burk diagram
tyrosinase [4] = assay: in vitro tyrosinase inhibition assay (L-Dopa conversion to dopachrome, absorption at 475 nm); assay type: biochemical; details: pH 6.8
Description: An in vitro tyrosinase inhibition assay was carried out using a modification of the procedure described by Pomerantz […] J. Biol. Chem. 238:2351-2357. According to this method, the conversion of L-Dopa, a substrate of tyrosinase, into dopaquinone and then dopachrome is followed by monitoring absorption at 475 nm in a spectrophotometer. As the colored substance dopachrome absorbs light having a wavelength of 475 nm, a quantitative measurement of the time-related conversion and thus the activity of tyrosinase can be made.
Each sample was prepared in a 50 mM potassium phosphate buffer which had been adjusted to pH 6.8, and stabilized by the addition of 10% DMSO. Tyrosinase (48 u, "u" represents the activity units of an enzyme, measured in mM substratum conversion per minute) was added to each sample. A double assessment was carried out for each inhibitor, using two different starting concentrations of L-Dopa: 0.4 mM and 0.2 mM. Controls were also run using the same concentrations of uninhibited tyrosinase to serve as the neutral value. In the control samples the volume of inhibitor was replaced with 50 mM potassium phosphate buffer. The time-related difference in absorption, and thus the conversion of L-Dopa, was followed for a period of two minutes.
The conversion kinetics of the tyrosinase was measured upon addition of the following concentrations of inhibitor: arbutin (0.9 mM); aloesin (0.0192 mM; 0.0385 mM and 0.0769 mM) and with the respective combination of both of the inhibitors. Enzyme inhibition was determined from the difference between the inhibited and the uninhibited kinetics. It is worth noting that the compositions examined in this example contain no liposomes, as the penetration ability and bio-availability are of no significance in an in vitro test. The purpose of these in vitro studies was to determine the efficacy of the inhibitors (arbutin and aloesin) individually and combinations thereof.

CC/C=C\C/C=C\C/C=C\CCCCCCCC(=O)O [linolenic acid]
inhibition of the synthesis of melanin (synthesis of melanin): inhibit the synthesis of melanin

O=C1O[C@H]([C@@H](O)CO)C(O)=C1O [ascorbic acid]
mode of tyrosinase inhibition (tyrosinase [1]): competitive inhibitors | quantity required to achieve a similar effect, compared to hydroquinone (skin): 17 times

CCCCCCCCOc1cc(C)c2c(=O)cc(CC(C)=O)oc2c1[C@@H]1O[C@H](CO)[C@@H](O)[C@H](O)[C@H]1O [octylaloesin]
inhibitory effect on tyrosinase compared to aloesin (tyrosinase [2]): significantly higher inhibitory effect on tyrosinase

O=c1cc(CO)occ1O [kojic acid]
mode of tyrosinase inhibition (tyrosinase [1]): competitive inhibitors

Oc1ccc(O)cc1 [hydroquinone]
side effects (skin; applied over long periods of time): serious side effects | photosensitivity of the skin (skin; exposed to UV light): increased photosensitivity | de-pigmentation (persistence) (skin; in vivo): permanent de-pigmentation

COc1cc(/C=C/C(=O)O[C@@H]2[C@@H](O)[C@H](O)[C@@H](CO)O[C@H]2c2c(O)cc(C)c3c(=O)cc(CC(C)=O)oc23)ccc1O [2"-O-feruloylaloesin]
mode of tyrosinase inhibition (tyrosinase [3]): non-competitive inhibitors | inhibition of tyrosinase (tyrosinase [3]): effective inhibitors of tyrosinase

CC(=O)Cc1cc(=O)c2c(C)cc(O)c([C@@H]3O[C@H](CO)[C@@H](O)[C@H](O)[C@H]3O)c2o1 [aloesin]
mode of tyrosinase inhibition (tyrosinase [3]): non-competitive inhibitors | inhibition of tyrosinase (tyrosinase [3]): effective inhibitors of tyrosinase | % Inhibition Tyrosinase (tyrosinase [4]; aloesin 0.0192 mM): 20% | % Inhibition Tyrosinase (tyrosinase [4]; aloesin 0.0385 mM): 32% | % Inhibition Tyrosinase (tyrosinase [4]; aloesin 0.0769 mM): 46%

OC[C@H]1O[C@@H](Oc2ccc(O)cc2)[C@H](O)[C@@H](O)[C@@H]1O [arbutin]
mode of tyrosinase inhibition (tyrosinase [1]): competitive inhibitors | % Inhibition Tyrosinase (tyrosinase [4]; arbutin 0.9 mM): 29% | quantity required to achieve a similar effect, compared to hydroquinone (skin): over 100 times
